Like-named read-outs stand apart in the source and are kept apart here. Values belong to the molecule of their own block, whether it stands above or below them.
Target: biotinylated Avi-POLθ[2-894] (Homo sapiens (Human), UniProt O75417)
Test: POLθ ATPase assay (ADP-Glo)
Conditions: n=2, read-out: Biochemical ATPase ADPGlo IC50
Description: In some embodiments, the ATPase assay a compound of the present disclosure is combined with biotinylated Avi-POLθ[2-894], a 50 nucleotide poly-thymine repeat single-stranded DNA, and ATP in buffer. In some embodiments, the mixture is incubated and ADP-Glo Reagent added, followed by a subsequent incubation. In some embodiments, a Kinase Detection Reagent may be added, followed by a third incubation. In some embodiments, the activity is measured via luminescence signal (e.g., measured with the EnVision multimode plate reader). POLθ-mediated ATP hydrolysis was measured using the ADP-Glo Kinase Assay (Promega Corporation, Madison, WI). Reactions were performed in white 384-well small-volume microplates (Greiner Bio-One, Frickenhausen, Germany) using a total volume of 15 μL. The ATPase reaction consisted of 1 nM biotinylated Avi-POLθ[2-894], 5 nM of a 50 nucleotide poly-thymine repeat single-stranded DNA (PolyT(50) ssDNA), and 100 μM ATP in 5 μL of assay buffer (50 mM Tris, pH 7.5, 80 mM KCl, 10 MgCl2, 1 mM DTT, 5% glycerol, 0.01% BSA, 0.01% Tween-20). Inhibition of POLΘATPase activity was determined by preparing 11-point serial dilutions of the test compounds in 100% DMSO, then transferring 30 nL of the compounds into the ATPase reaction using an Echo acoustic liquid handler (Beckman Coulter, Brea, CA). DMSO-treated wells containing either all of the reaction components (1 nM biotinylated Avi-POLθ[2-894], 5 nM PolyT(50) ssDNA, 100 μM ATP) or with assay buffer substituted for the biotinylated Avi-POLθ[2-894](0 nM biotinylated Avi-POLθ[2-894], 5 nM PolyT(50) ssDNA, 100 μM ATP) were used to define the maximum and minimum response in the assay. Following a one-hour incubation at ambient temperature, 5 μL of ADP-Glo Reagent was added to the ATPase reaction, and this mixture was allowed to incubate at ambient temperature for an additional hour. Lastly, 5 μL of Kinase Detection Reagent was added, followed by a third one-hour incubation at ambient temperature. […] Luminescence signal was measured using the EnVision multimode plate reader (Perkin Elmer. Waltham. MA). […] Non-linear regression analysis using the four-parameter logistic equation was conducted on the percent activity values of the compound dose-responses, yielding the AC50 value for each compound. Genedata Screener (Genedata. Basel, Switzerland) was used for the data analysis.

biotinylated Avi-POLθ[2-894], sequence (O75417 2-894): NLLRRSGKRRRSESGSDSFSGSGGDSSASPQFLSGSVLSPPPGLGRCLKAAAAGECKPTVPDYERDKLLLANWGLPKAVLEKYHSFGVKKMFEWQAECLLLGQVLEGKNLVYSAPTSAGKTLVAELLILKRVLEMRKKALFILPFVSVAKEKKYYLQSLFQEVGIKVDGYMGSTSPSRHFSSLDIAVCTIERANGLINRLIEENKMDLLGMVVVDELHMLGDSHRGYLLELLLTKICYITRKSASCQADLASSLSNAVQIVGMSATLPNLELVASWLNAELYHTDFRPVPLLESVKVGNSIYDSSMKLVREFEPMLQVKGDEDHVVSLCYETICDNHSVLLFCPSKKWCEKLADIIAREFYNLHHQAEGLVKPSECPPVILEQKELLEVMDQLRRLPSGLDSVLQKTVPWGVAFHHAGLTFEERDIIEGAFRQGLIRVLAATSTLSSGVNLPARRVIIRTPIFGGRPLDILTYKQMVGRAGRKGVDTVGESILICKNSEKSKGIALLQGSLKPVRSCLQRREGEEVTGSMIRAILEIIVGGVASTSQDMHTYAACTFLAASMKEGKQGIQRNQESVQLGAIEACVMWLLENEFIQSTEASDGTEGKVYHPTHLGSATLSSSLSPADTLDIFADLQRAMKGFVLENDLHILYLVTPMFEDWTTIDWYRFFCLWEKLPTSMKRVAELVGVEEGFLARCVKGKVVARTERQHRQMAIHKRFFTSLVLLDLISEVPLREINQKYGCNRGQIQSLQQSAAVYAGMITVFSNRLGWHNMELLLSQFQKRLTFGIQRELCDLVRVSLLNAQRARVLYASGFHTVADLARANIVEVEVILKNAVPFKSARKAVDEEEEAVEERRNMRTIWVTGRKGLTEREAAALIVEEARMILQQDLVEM

SMILES: COc1ccc(C#N)cc1-c1cc(C)ncc1C(=O)Nc1nc2c(s1)CN(C1CC1)C2 (racemic) [Example 165]
IC50: 50 to 150 nM

SMILES: COc1ccc(C#N)cc1-c1cc(C)ncc1C(=O)Nc1nc2c(s1)CN(C(=O)c1ccncc1)CC2 (racemic) [Example 213]
IC50: 150 to 900 nM

SMILES: COc1ccc(C#N)cc1-c1cc(C)ncc1C(=O)Nc1nc2c(s1)CN(S(=O)(=O)C1CCCOC1)C2 (racemic) [Example 233]
IC50: 15 to 50 nM

SMILES: COc1ccc(C#N)cc1-c1cc(C)ncc1C(=O)Nc1nc2c(s1)CN(C(=O)C1COC1)CC2 (single isomer, unassigned)
IC50: 150 to 900 nM

SMILES: COc1ccc(C#N)cc1-c1cc(C)ncc1C(=O)Nc1nc2c(s1)CN(C(=O)C1CCCC1)CC2 (single isomer, unassigned)
IC50: 150 to 900 nM

SMILES: COc1ccc(C#N)cc1-c1cc(C)ncc1C(=O)Nc1nc2c(s1)CN(C(=O)C1CC1(F)F)CC2 (single isomer, unassigned) [Example 210]
IC50: 150 to 900 nM

SMILES: COc1ccc(C#N)cc1-c1cc(C)ncc1C(=O)Nc1nc2c(s1)CN(C(=O)C1CCCCO1)CC2 (single isomer, unassigned) [Example 215]
IC50: ≥ 900 nM

SMILES: COc1cnc(Cl)cc1-c1cc(C)ncc1C(=O)Nc1nc2c(s1)CN(C(=O)c1ccc(C(F)(F)F)nc1OC)C2C (single isomer, unassigned) [Example 1037, (R or S)-2′-chloro-5′-methoxy-N-(5-(2-methoxy-6-(trifluoromethyl)nicotinoyl)-4-methyl-5,6-dihydro-4H-pyrrolo[3,4-d]thiazol-2-y])-6-methyl-[4,4′-bipyridine]-3-carboxamide]
IC50 (POLθ ATPase, ADP-Glo): 15 to 50 nM

SMILES: COc1cnc(Cl)cc1-c1cc(C)ncc1C(=O)Nc1nc2c(s1)C(C)N(C(=O)c1ccc(C(F)(F)F)nc1OC)C2 (single isomer, unassigned) [Example 1047, (S or R)-2′-chloro-5′-methoxy-N-(5-(2-methoxy-6-(trifluoromethyl)nicotinoyl)-6-methyl-5,6-dihydro-4H-pyrrolo[3,4-d]thiazol-2-yl)-6-methyl-[4,4′-bipyridine]-3-carboxamide]
IC50 (POLθ ATPase, ADP-Glo): 150 to 900 nM

SMILES: COc1cn2cncc2cc1-c1cc(C)ncc1C(=O)Nc1nc2c(s1)CN(C(=O)[C@H]1C[C@H](OC(F)(F)F)C1)C2 [Example 22, 4-(6-methoxyimidazo[1,5-a]pyridin-7-yl)-6-methyl-N-(5-((1r,3r)-3-(trifluoromethoxy)cyclobutane-1-carbonyl)-5,6-dihydro-4H-pyrrolo[3,4-d]thiazol-2-yl)nicotinamide]
IC50: 15 to 50 nM

SMILES: COc1cnc(Cl)cc1-c1cc(C)ncc1C(=O)Nc1nc2c(s1)CN(C(=O)c1ncc(C)cn1)C2 [Example 34, 2′-chloro-5′-methoxy-6-methyl-N-(5-(5-methylpyrimidine-2-carbonyl)-5,6-dihydro-4H-pyrrolo[3,4-d]thiazol-2-yl)-[4,4′-bipyridine]-3-carboxamide]
IC50: 1 to 15 nM

SMILES: COc1cnc(Cl)cc1-c1cc(C)ncc1C(=O)Nc1nc2c(s1)CN(C(=O)c1ccnn1CC(F)(F)F)C2 [Example 46, 2′-chloro-5′-methoxy-6-methyl-N-(5-(1-(2,2,2-trifluoroethyl)-1H-pyrazole-5-carbonyl)-5,6-dihydro-4H-pyrrolo[3,4-d]thiazol-2-yl)-[4,4′-bipyridine]-3-carboxamide]
IC50: 1 to 15 nM

Now from value to molecule:

IC50: 150 to 900 nM
SMILES: COc1cnc(Cl)cc1-c1cc(C)ncc1C(=O)Nc1nc2c(s1)CC(N1CCC(O)CC1)CC2 (racemic) [Example 109, (Racemic)-2′-chloro-N-(6-(4-hydroxypiperidin-1-yl)-4,5,6,7-tetrahydrobenzo[d]thiazol-2-yl)-5′-methoxy-6-methyl-[4,4′-bipyridine]-3-carboxamide]

IC50: ≥ 900 nM
SMILES: COc1cnc(Cl)cc1-c1cc(C)ncc1C(=O)Nc1nc2c(s1)CC(N1CCCCC1)CC2 (racemic) [Example 110]

IC50: 150 to 900 nM
SMILES: COc1cnc(Cl)cc1-c1cc(C)ncc1C(=O)Nc1nc2c(s1)CC(NC1CCC1)CC2 (racemic) [Example 134]

IC50: 1 to 15 nM
SMILES: COc1cnc(Cl)cc1-c1cc(C)ncc1C(=O)Nc1nc2c(s1)CN(C(=O)c1ccnn1C(F)F)C2 (racemic) [Example 137]

IC50: 150 to 900 nM
SMILES: COc1cnc(Cl)cc1-c1cc(C)ncc1C(=O)Nc1nc2c(s1)C[C@H](NC(=O)[C@H]1C[C@@H](O)C1)CC2 (racemic) [Example 144]

IC50: 15 to 50 nM
SMILES: COc1cnc(Cl)cc1-c1cc(C)ncc1C(=O)Nc1nc2c(s1)C[C@H](C(=O)NC1CCC1)CC2 (single isomer, unassigned) [Example 27, (R or S)-2-(2′-chloro-5′-methoxy-6-methyl-[4,4′-bipyridine]-3-carboxamido)-N-cyclobutyl-4,5,6,7-tetrahydrobenzo[d]thiazole-6-carboxamide]

IC50: 150 to 900 nM
SMILES: COc1cnc(Cl)cc1-c1cc(C)ncc1C(=O)Nc1nc2c(s1)C[C@@H](C(=O)NC1CCC1)CC2 (single isomer, unassigned) [Example 29, (S or R)-2-(2′-chloro-5′-methoxy-6-methyl-[4,4′-bipyridine]-3-carboxamido)-N-cyclobutyl-4,5,6,7-tetrahydrobenzo[d]thiazole-6-carboxamide]

IC50: 150 to 900 nM
SMILES: COc1cnc(Cl)cc1-c1cc(C)ncc1C(=O)Nc1nc2c(s1)CC(C(=O)NC1CC1)CC2 (single isomer, unassigned) [Example 154]

IC50: 15 to 50 nM
SMILES: COc1cnc(Cl)cc1-c1cc(C)ncc1C(=O)Nc1nc2c(s1)CN(C(=O)c1nccn1C)C2 [Example 23, 2′-chloro-5′-methoxy-6-methyl-N-(5-(1-methyl-1H-imidazole-2-carbonyl)-5,6-dihydro-4H-pyrrolo[3,4-d]thiazol-2-yl)-[4,4′-bipyridine]-3-carboxamide]

IC50: 15 to 50 nM
SMILES: COc1cnc(Cl)cc1-c1cc(C)ncc1C(=O)Nc1nc2c(s1)CN(C(=O)C1CN(CC(F)F)C1)C2 [Example 24, 2′-chloro-N-(5-(1-(2,2-difluoroethyl)azetidine-3-carbonyl)-5,6-dihydro-4H-pyrrolo[3,4-d]thiazol-2-yl)-5′-methoxy-6-methyl-[4,4′-bipyridine]-3-carboxamide]

IC50: 15 to 50 nM
SMILES: COc1cnc(Cl)cc1-c1cc(C)ncc1C(=O)Nc1nc2c(s1)CN(C(=O)c1cncn1C)C2 [Example 30, 2′-chloro-5′-methoxy-6-methyl-N-(5-(1-methyl-1H-imidazole-5-carbonyl)-5,6-dihydro-4H-pyrrolo[3,4-d]thiazol-2-yl)-[4,4′-bipyridine]-3-carboxamide]

IC50: 1 to 15 nM
SMILES: COc1cnc(Cl)cc1-c1cc(C)ncc1C(=O)Nc1nc2c(s1)CN(C(=O)c1cccnn1)C2 [Example 33, 2′-chloro-5′-methoxy-6-methyl-N-(5-(pyridazine-3-carbonyl)-5,6-dihydro-4H-pyrrolo[3,4-d]thiazol-2-yl)-[4,4′-bipyridine]-3-carboxamide]

IC50: 1 to 15 nM
SMILES: COc1cnc(Cl)cc1-c1cc(C)ncc1C(=O)Nc1nc2c(s1)CN(C(=O)c1cnccn1)C2 [Example 41, 2′-chloro-5′-methoxy-6-methyl-N-(5-(pyrazine-2-carbonyl)-5,6-dihydro-4H-pyrrolo[3,4-d]thiazol-2-yl)-[4,4′-bipyridine]-3-carboxamide]

IC50: 150 to 900 nM
SMILES: COc1cnc(Cl)cc1-c1cc(C)ncc1C(=O)Nc1nc2c(s1)CN(C(=O)C1CC(N(C)C)C1)C2 (centres unmarked) [Example 43, 2′-chloro-N-(5-(3-(dimethylamino)cyclobutane-1-carbonyl)-5,6-dihydro-4H-pyrrolo[3,4-d]thiazol-2-yl)-5′-methoxy-6-methyl-[4,4′-bipyridine]-3-carboxamide]

— US20250230171A1 (MOMA Therapeutics, Inc., priority 2023, published 2025)
